# From PMC9276676, “Difluoromethylornithine (DFMO) and AMXT 1501 inhibit capsule biosynthesis in pneumococci” (Scientific Reports, 2022)
# Read-outs that look alike come from different tables or passages of the source.
# Key:
# [1] = system: EF3030 (serotype 19F) capsule; assay: Total capsular polysaccharide (CPS) immunoblot with densitometry; type: cell-based, Streptococcus pneumoniae
# Method: (§1) S. pneumoniae strains were cultured with DFMO and AMXT 1501 at varying final concentrations of 1/2, 1/4, and 1/8 MIC to OD600 0.2–0.3 either individually or together to estimate any additive or synergistic effects. Capsular polysaccharides (CPS) were extracted and quantified in triplicate, as described previously[26] with slight modification. Briefly, CPS was extracted in a lysis buffer (4% deoxycholate, 50 µg/mL DNAse I and 50 µg/mL RNAse A) at 37 °C for 10 min and centrifuged at 18,000×g for 10 min. The supernatant (2 µL) was spotted on a 0.2-µm-pore-size nitrocellulose membrane (Thermo Fisher Scientific, Waltham, MA, USA) and oven dried at 60 °C for 15 min. The membranes were blocked and incubated with different types of antisera for capsule detection: antisera type- 4 (for TIGR4), 2 (for D39), polyclonal (for EF3030) and 3 (for WU2) (Cedarlane, Burlington, NC, USA). A conjugated polyclonal goat anti-rabbit IgG-HRP (Agilent Technologies, Santa Clara, CA, USA) was used for enhanced chemiluminescence (ECL) detection in all the strains (Thermo Fisher Scientific, Waltham, MA, USA) and scanned using a ChemiDoc XRS+ with Image Lab software (Bio-Rad, Hercules, CA, USA). Densitometry analysis of the immunoblot was done with NIH ImageJ software.
# (§2) We determined the impact of varying concentrations of DFMO (1/8 to 1/2 MIC) on CPS in all serotypes (2, 4, 19F, and 3) used in this study. […] D39 was treated with 1/8 MIC DFMO alone, 1/4 MIC agmatine (Agm) alone, a combination of 1/8 MIC DFMO and 1/4 MIC Agm, and a control without DFMO or Agm. CPS was extracted as described in the previous section and immunoblot analysis with type 2 antisera was performed to detect CPS semi-quantitatively.
# WU2 (serotype 3) capsule = assay: as above; type: cell-based, Streptococcus pneumoniae
# Method: as §1, §2
# D39 (serotype 2) capsule = assay: as above; type: cell-based, Streptococcus pneumoniae
# Method: as §1, §2
# [2] = system: TIGR4 (serotype 4) capsule; assay: as above; type: cell-based, Streptococcus pneumoniae
# Method: as §1, §2
# [3] = biological target: SP_0916 (arginine decarboxylase, ADC) (Streptococcus pneumoniae, UniProt A0A0H2UPK4); assay: Inhibition of decarboxylase activities of recombinant SP_0916 (LC-MS); type: biochemical; conditions: 10 mM substrate, 15 min, 37 °C
# Description: We determined the impact of DFMO (ODC/ADC inhibitor) and α-difluoromethylarginine (DFMA, an ADC inhibitor) on the decarboxylase activities of SP_0916. BL21(DE3) cells expressing recombinant His tag SP_0916 were lysed with B-PER reagent buffer (Thermo Fisher Scientific, Waltham, MA, USA), lysate separated by loading unto HisPur Cobalt Spin Column (Thermo Fisher Scientific, Waltham, MA, USA), desalted using Sephadex G-25 PD-10 column (GE Healthcare, Chicago, IL, USA), and protein concentration estimated using the Pierce BCA Protein Assay kit (Thermo Fisher Scientific, Waltham, MA, USA).
# SP_0916-encoded protein (0.926 µmol L^−1) was mixed with 10 mM substrate (arginine, lysine or ornithine) in the reaction mixture (500 µL reaction volume, 50 mM Tris–HCl, pH 8.0) that contains 2.5 mM MgSO4 and 0.6 mM PLP. DFMO was diluted in water to 3–900 mM and added to the reaction mixture after 5 min preincubation at 37 °C in the dark. DFMA stock was made in a similar manner but was diluted in water to 0.3–1000 µM. The enzyme and inhibitor were incubated at 37 °C for 15 min in the dark and the reaction terminated with 0.3 M perchloric acid. After incubation on ice for 15 min, the samples were neutralized with 25 µL of 10 N KOH and extracted with 1 mL of 1-butanol. The organic layer was dried under nitrogen gas and reconstituted with 100 µL of water containing Spermidine-d8 and Glucose-d7 as an internal standard. Analysis of the extracts was performed on a Surveyor LC–MS system. 5 µL of reconstitution was injected to the LC–MS system for detection of the products (agmatine, cadaverine or putrescine). We used internal standards to normalize and determine the peak intensity (area ratio) for each metabolite detected. Enzyme activity without inhibitor is referred to as a control activity. All experiments were performed in triplicate. The concentration of inhibitor that inhibited 50% of the control activity (IC50 value) was determined by varying the concentration of the indicated DFMO or DFMA and measuring the decarboxylase activity. Sigma Plot v. 12 was used to fit the curve through the points and IC50 values were interpolated from the fitted curve.
# SP_0916 (arginine decarboxylase, ADC), sequence (A0A0H2UPK4 entry or part of it): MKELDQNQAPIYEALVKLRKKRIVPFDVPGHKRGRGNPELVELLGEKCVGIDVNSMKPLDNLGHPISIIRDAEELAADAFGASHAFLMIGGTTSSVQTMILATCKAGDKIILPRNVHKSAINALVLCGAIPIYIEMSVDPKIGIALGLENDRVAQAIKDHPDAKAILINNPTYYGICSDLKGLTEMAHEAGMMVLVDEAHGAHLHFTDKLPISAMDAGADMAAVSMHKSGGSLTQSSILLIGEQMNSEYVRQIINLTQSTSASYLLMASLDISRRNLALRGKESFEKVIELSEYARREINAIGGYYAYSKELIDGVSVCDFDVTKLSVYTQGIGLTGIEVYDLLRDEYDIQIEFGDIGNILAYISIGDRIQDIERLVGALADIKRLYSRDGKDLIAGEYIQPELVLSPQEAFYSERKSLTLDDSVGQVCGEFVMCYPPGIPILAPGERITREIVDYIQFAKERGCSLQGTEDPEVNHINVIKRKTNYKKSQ
smiles,measurement,setting,value
"NCCC[C@](N)(C(=O)O)C(F)F [DFMO, α-difluoromethylornithine]",less capsule compared to untreated controls (densitometry of immunoblots),[1],~84%
same,inhibition of CPS,"[1]; serotype 19F, DFMO less than 137 mM",failed to inhibit CPS
same,less capsule compared to untreated controls (densitometry of immunoblots),WU2 (serotype 3) capsule,~39%
same,inhibition of CPS,"WU2 (serotype 3) capsule; serotype 3, DFMO less than 137 mM",failed to inhibit CPS
same,less capsule compared to untreated controls (densitometry of immunoblots),D39 (serotype 2) capsule,~71%
same,concentration that inhibits CPS,"D39 (serotype 2) capsule; D39, 1/8 MIC",34 mM
same,total CPS (capsule) by immunoblot,"D39 (serotype 2) capsule; D39, DFMO 1/8 MIC 34 mM, agmatine 1/4 MIC 20 mM, AMXT 1501 1/2 MIC 7.4 µM, alone or with agmatine",inhibits the capsule production
same,less capsule compared to untreated controls (densitometry of immunoblots),[2],approximately 85%
same,inhibition of CPS,"[2]; serotype 4, DFMO less than 137 mM",failed to inhibit CPS
same,IC50,"[3]; DFMO IC50, ornithine to putrescine",26.6 ± 4.1 mM
same,IC50,"[3]; arginine to agmatine, read-out: DFMO IC50",75.1 ± 5.5 mM
same,IC50,"[3]; lysine to cadaverine, read-out: DFMO IC50",8.2 ± 0.2 mM
